As usually defined, the IC50 is the concentration needed to halve the response being measured. The AC50 is the concentration at which the activity in the assay is half-maximal. By EC50 is commonly meant the concentration at which the effect is half-maximal.

These results are taken from ChEMBL document CHEMBL1201862, “PubChem BioAssay data set” (2004).

Assay [1] deals with T1, Hexokinase HKDC1 (Homo sapiens, UniProt Q2TB90).
T1 sequence (Q2TB90 whole entry): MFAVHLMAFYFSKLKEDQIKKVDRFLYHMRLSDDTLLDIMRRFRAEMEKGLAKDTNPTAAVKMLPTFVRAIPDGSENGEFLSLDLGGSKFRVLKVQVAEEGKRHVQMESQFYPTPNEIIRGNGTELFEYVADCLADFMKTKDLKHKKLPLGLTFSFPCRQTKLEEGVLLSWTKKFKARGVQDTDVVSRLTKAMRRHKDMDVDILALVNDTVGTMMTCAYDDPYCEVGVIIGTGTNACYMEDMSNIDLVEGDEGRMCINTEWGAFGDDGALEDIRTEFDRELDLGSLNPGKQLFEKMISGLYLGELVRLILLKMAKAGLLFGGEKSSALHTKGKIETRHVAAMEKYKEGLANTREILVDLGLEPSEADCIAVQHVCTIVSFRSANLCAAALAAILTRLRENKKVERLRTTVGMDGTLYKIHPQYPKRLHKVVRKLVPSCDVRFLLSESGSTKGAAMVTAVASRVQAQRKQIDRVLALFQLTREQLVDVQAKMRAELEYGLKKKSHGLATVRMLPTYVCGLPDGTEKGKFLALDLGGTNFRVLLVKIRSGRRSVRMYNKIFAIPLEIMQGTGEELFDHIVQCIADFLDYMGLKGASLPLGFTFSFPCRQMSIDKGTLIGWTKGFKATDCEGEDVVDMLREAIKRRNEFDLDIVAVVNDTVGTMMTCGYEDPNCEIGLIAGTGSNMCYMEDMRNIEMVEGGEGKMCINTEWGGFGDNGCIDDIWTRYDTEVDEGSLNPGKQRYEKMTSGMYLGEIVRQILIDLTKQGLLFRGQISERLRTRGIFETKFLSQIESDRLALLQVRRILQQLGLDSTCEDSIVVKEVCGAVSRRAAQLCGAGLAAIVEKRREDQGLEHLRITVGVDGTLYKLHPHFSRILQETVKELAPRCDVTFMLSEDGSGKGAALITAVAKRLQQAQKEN
Put plainly: analog inhibition of human HKDC1 activity – biochemical, set 2, SAR follow-up (AID 588355). It is filed as functional.

Assay [2] has as its target T2, Hexokinase-1 (Homo sapiens, UniProt P19367). Description: hexokinase 1 activity inhibitors, potency – biochemical, set 2, resazurin fluorescence coupled readout, selectivity assay for HKDC1 inhibitor project, SAR follow-up (AID 588356). The assay is classed as functional. A general note: Alamar Blue is a resazurin reagent that responds to reducing activity.
For another assay, the system named is Jurkat. Put plainly: blockers of NF-kB activation in T cells – Jurkat, luciferase reporter, luminescence, B- and T-cell, dose response (AID 489004).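 Also: NF-kB luciferase reporter Jurkat cells stimulated with PMA plus ionomycin.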 The settings on record: Homo sapiens. It is filed as functional, cell-based.
Assay [3] is described as follows: non-specific 3'UTR reporter inhibition in Clone20-Shn3RL – cell-based, Renilla luciferase, cherry-picked, counter-screen for Shn3 inhibitor project, dose response (AID 624133). The assay is classed as functional. (The purpose of a counterscreen is to sort out artefacts and off-target activity.)
Assay [4] is described as follows: luciferase reporter signal reduction – luminescence, H4-C neuroglioblastoma cells, dose response (AID 2458).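 Also: H4 neuroglioblastoma cells stably carrying a luciferase reporter gene fusion.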 The assay is classed as functional, cell-based.
Assay [5] is described as follows: Fluorescence-based cell-based high throughput dose response assay for inhibitors of the interaction of nucleotide-binding oligomerization domain containing 2 (NOD2) and the receptor-interacting serine-threonine kinase 2 (RIPK2). The assay is classed as functional. As to conditions: Homo sapiens.
The nature of assay [6]: luciferase reporter signal suppression in cells – H4 neuroglioma cells, luminescence, dose response (AID 1990). It is filed as functional, cell-based.
The next assay is described as follows: cells. It is filed as functional, cell-based.
A short description of assay [7]: alpha-synuclein stem-loop translation blockers – luminescence, H4 neuroglioblastoma cells, dose confirmation, confirmation (AID 2454).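 Also: H4 neuroglioblastoma cells carrying an alpha-synuclein 5'UTR luciferase reporter; potency for inhibition of the luciferase signal.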 The assay is classed as functional, cell-based.
Assay [8] in a line: HEK-293T viability loss, compound-treated – cell-based, uHTS hits, cytotoxicity control for B/T-cell NF-kB inhibitor project, dose response (AID 489019).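 Also: IC50 reflects cytotoxicity as loss of cell viability.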 It is filed as functional.
A short description of assay [9]: reduction of Shn3 3'UTR-driven luciferase in osteoblasts – cell-based, Clone20 osteoblasts, firefly luciferase, cherry-picked, dose response (AID 624132).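 Also: firefly luciferase luminescence from reporter carrying the Shn3 3'UTR in osteoblasts.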 The assay is classed as functional.
Assay [10] addresses T3, Heat shock factor protein 1 (Mus musculus, UniProt P38532).
T3 sequence (P38532 whole entry): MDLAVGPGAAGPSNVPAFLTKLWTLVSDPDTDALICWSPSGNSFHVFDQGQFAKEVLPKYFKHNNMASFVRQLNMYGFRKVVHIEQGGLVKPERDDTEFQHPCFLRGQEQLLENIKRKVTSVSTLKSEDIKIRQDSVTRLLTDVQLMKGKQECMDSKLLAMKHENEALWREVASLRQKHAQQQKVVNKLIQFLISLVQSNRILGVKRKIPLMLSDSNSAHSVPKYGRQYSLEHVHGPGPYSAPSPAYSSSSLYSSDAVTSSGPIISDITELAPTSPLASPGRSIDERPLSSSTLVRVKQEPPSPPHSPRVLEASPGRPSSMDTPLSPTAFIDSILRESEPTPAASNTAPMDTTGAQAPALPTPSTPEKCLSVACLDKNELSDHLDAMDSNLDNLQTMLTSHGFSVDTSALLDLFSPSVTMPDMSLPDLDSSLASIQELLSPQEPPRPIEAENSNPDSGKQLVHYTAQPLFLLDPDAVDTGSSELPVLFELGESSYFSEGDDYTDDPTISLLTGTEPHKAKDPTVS
Put plainly: decrease of HSF1-responsive luciferase luminescence – cell-based, NIH3T3, dose retest, confirmation (AID 2382).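 Also: NIH3T3 fibroblasts with HSF1-driven luciferase reporter stressed by proteasome inhibitor MG132; luminescence from HSF1-driven luciferase expression after 8 hours of MG132 stress.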 The assay is classed as functional.

A short description of assay [11]: loss of viability in HepG2 cells – cell-based, CellTiter-Glo, cherry-picked, cytotoxicity control for Shn3 inhibitor project, dose response (AID 624134). It is filed as functional. On the technique in general: Cellular ATP, detected with luciferase, serves as a proxy for viable cell number.
Assay [12] can be described thus: alpha-synuclein stem-loop luciferase translation blockers – H4 neuroglioma cells, luminescence, confirmation (AID 1988). It is filed as functional, cell-based.
A further assay has as its system BJ. Put plainly: growth inhibition of engineered Ras-driven BJ cells – cell-based, alamar blue fluorescence, cherrypicked samples, dose response (AID 2631).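 Also: confirmatory dose-response assay in RAS-dependent BJ fibroblasts engineered with TERT, LT and ST, with cytotoxicity read by fluorescence.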 It is filed as functional. The settings on record: Homo sapiens.
The next assay deals with Paired box protein Pax-8 (Homo sapiens, UniProt Q06710). Description: PAX8 transcriptional activity inhibition in RMG-I – RMG-I cells, luciferase, cherry-pick, dose response (AID 687027).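 Also: luciferase reporter driven by Pax8 target thyroperoxidase promoter measured by SteadyGlo luminescence.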 It is filed as functional, cell-based.
Chain of Paired box protein Pax-8 (Q06710 whole entry): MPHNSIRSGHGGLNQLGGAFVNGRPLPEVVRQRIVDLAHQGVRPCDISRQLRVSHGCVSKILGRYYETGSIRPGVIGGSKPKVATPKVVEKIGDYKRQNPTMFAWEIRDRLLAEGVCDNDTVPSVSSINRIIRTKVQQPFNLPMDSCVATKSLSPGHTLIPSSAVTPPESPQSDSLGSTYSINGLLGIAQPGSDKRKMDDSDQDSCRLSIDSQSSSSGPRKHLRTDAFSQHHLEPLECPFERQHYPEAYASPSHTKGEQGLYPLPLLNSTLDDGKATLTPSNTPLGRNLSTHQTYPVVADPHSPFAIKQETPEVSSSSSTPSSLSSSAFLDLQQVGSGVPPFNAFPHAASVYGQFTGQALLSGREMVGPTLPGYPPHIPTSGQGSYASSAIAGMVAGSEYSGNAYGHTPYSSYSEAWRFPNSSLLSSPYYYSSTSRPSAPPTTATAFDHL
A short description of assay [13]: NIH-3T3 fibroblast cytotoxicity, dose response, cytotoxicity control, cell-based, fluorescence, Alamar Blue, secondary assay (AID 2327).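 Also: NIH-3T3 mouse fibroblasts cultured with fluconazole at 8 µg/mL.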 It is filed as functional.
Assay [14] in a line: fluconazole-exposed Candida albicans growth modulators – fluorescence, retest, confirmation (AID 2467). The assay is classed as functional, cell-based.
Assay [15] is described as follows: Luminescence Cell-Based Dose Response HTS to Identify Inhibitors of 5'UTR Stem-Loop Driven Prion Protein mRNA Translation in H4 Neuroglioblastoma Cells. [Related pubchem assays: 1827 (Project Summary), 1813 (Primary HTS)]. The assay is classed as functional.
Assay [16] has as its target T2, Hexokinase-1. Put plainly: SAR analysis of small molecule inhibitors of hexokinase domain containing I (HKDC1) in the hexokinase 1 selectivity assay. [Related pubchem assays (depositor defined):AID493160, AID493190]. It is filed as functional.
In assay [17] the target is T1, Hexokinase HKDC1. Description: SAR analysis of small molecule inhibitors of hexokinase domain containing I (HKDC1). [Related pubchem assays (depositor defined):AID493160, AID493190]. The assay is classed as functional.
The next assay has as its target DNA topoisomerase (Yersinia pestis, UniProt A0A2S9PM60). Put plainly: Yersinia topoisomerase I cleavage product accumulation – biochemical, cherry-pick, dose response (AID 588525).
For assay [18], the target named is T4, Phospholipase D1 (Homo sapiens, UniProt Q13393).
T4 sequence (Q13393 whole entry): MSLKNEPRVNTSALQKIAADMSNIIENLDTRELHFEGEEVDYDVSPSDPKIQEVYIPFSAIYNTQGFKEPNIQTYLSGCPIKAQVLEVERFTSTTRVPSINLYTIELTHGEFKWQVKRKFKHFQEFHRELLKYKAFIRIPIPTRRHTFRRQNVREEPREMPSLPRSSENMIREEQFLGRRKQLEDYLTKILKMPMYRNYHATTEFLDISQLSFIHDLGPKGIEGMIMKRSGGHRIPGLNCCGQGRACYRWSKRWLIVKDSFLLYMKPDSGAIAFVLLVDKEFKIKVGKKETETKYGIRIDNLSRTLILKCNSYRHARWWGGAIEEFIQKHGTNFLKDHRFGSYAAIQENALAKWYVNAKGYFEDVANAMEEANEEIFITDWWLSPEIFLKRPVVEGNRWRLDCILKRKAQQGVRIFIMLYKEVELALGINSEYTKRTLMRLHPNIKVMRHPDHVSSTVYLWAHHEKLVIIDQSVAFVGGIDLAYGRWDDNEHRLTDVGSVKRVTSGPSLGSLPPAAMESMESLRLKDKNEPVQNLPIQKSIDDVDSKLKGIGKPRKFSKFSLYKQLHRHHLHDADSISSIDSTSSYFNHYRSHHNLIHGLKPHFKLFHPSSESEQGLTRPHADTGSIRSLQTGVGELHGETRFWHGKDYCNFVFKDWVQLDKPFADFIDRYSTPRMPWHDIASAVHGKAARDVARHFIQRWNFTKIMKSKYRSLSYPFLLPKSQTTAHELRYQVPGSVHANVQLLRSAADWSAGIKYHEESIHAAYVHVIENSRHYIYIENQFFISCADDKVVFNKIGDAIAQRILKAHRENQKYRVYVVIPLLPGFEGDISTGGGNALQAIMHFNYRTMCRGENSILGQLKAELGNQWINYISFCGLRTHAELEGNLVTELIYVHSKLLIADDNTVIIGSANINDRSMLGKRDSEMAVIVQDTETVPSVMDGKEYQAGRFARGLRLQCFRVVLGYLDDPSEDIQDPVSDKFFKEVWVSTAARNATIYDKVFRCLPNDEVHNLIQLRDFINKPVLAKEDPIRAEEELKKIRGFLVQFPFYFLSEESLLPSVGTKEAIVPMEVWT
Description: cellular phospholipase D1 inhibition IC50 – cell-based, dose response (AID 602151).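 Also: cellular PLD1 assay in Calu-1 cells stimulated with PMA.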 It is filed as functional.

Assay [19] has as its target T5, Phospholipase D2 (Homo sapiens, UniProt O14939). Put plainly: PLD2 purified enzyme concentration response. [Related pubchem assays (depositor defined):AID588854]. The assay is classed as functional.
The target of assay [20] is T4, Phospholipase D1. Description: PLD1 purified enzyme concentration response. [Related pubchem assays (depositor defined):AID588854]. The assay is classed as functional.
Assay [21] addresses T5, Phospholipase D2. Description: cellular phospholipase D2 inhibition IC50 – cell-based, dose response (AID 602147).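 Also: cellular assay in HEK293 cells overexpressing GFP-tagged PLD2.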 It is filed as functional.
For assay [22], the target named is Voltage-gated inwardly rectifying potassium channel KCNH2 (Homo sapiens, UniProt Q12809). The settings on record: Potency.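 Also: confirmatory quantitative high-throughput screen measuring inhibition of hERG channel activity.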
Another assay has as its target Mu-type opioid receptor (Homo sapiens, UniProt P35372). It is filed as functional, cell-based.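 Also: U2OS cells with beta-arrestin recruitment to OPRM1 by beta-gal complementation.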
The target of assay [23] is 5-hydroxytryptamine receptor 2A (Mus musculus, UniProt P35363). It is filed as functional, cell-based.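 Also: CHO-K1 cells with tagged receptor and beta-arrestin; agonist potency measured as compound-induced activation of the receptor.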
Chain of 5-hydroxytryptamine receptor 2A (P35363 whole entry): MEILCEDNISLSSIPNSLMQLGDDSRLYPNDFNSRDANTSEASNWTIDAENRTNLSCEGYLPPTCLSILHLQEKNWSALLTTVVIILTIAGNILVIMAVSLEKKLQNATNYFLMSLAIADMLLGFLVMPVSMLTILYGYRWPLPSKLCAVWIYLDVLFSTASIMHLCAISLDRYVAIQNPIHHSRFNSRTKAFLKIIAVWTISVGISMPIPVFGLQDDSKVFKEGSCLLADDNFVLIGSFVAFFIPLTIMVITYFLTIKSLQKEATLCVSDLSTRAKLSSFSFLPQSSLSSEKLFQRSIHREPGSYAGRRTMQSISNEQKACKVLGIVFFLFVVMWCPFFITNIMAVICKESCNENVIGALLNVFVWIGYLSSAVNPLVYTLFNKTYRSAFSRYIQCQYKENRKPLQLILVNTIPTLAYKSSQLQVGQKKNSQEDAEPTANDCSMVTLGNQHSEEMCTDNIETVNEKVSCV

The source made the active and inactive calls. Where only a bound is given, the exact number is not on record here.

T5 sequence (O14939 whole entry): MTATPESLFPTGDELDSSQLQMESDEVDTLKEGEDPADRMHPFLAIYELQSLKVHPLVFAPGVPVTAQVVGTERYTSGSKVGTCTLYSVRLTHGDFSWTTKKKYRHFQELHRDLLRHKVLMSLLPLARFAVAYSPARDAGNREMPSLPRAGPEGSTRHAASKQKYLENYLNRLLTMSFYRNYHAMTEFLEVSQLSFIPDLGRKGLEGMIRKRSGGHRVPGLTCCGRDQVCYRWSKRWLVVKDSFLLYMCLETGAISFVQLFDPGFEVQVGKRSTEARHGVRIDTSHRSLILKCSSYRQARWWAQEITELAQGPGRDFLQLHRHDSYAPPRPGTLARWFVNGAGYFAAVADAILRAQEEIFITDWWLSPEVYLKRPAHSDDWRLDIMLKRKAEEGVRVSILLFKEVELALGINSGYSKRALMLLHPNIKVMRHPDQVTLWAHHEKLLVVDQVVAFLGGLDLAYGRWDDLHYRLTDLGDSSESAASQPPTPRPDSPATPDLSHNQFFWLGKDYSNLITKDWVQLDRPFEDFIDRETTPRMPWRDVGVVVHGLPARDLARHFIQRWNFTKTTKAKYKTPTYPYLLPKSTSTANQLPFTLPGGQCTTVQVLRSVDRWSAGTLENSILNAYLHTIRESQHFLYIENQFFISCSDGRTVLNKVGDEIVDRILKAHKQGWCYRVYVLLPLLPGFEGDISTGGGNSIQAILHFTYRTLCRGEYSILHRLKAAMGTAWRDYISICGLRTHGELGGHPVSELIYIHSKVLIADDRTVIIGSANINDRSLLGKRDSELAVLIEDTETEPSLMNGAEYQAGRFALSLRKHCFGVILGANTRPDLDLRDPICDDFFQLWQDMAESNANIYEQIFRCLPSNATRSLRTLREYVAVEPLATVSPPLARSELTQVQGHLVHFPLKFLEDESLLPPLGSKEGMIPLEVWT
T2 sequence (P19367 whole entry): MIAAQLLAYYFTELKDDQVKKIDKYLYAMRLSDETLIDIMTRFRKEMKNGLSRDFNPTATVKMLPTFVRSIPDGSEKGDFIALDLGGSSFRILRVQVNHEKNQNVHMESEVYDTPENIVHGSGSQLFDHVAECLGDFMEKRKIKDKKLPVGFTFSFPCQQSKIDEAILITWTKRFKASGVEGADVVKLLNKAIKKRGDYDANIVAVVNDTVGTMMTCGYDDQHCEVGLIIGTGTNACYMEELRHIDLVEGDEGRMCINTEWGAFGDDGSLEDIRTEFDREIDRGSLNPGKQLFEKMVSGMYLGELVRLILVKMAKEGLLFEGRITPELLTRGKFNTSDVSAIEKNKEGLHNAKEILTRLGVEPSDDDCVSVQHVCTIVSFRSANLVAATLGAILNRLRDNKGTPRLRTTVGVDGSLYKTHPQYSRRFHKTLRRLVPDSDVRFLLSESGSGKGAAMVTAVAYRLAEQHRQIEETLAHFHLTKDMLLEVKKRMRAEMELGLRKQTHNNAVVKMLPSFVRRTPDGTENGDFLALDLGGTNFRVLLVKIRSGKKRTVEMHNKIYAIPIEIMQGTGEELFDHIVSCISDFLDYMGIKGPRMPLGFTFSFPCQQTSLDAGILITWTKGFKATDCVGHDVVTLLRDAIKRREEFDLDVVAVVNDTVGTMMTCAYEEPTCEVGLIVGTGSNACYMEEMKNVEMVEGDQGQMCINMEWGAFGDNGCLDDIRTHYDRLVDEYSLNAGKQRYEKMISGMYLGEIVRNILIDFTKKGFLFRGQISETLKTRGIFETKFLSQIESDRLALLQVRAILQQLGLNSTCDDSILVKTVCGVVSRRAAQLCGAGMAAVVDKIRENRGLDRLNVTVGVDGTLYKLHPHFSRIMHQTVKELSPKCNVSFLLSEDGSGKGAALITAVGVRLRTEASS
Chain of Mu-type opioid receptor (P35372 whole entry): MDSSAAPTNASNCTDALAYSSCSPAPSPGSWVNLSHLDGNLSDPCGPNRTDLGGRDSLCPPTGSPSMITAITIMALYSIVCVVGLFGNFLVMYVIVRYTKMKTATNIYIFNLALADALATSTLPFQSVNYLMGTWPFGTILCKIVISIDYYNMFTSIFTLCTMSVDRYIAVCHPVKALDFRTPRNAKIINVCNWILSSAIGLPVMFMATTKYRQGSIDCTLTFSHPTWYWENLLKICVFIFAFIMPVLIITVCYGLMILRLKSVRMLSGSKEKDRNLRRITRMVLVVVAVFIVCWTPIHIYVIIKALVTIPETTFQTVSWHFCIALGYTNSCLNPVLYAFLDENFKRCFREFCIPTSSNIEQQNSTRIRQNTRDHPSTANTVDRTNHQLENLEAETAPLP
Chain of DNA topoisomerase (A0A2S9PM60 whole entry): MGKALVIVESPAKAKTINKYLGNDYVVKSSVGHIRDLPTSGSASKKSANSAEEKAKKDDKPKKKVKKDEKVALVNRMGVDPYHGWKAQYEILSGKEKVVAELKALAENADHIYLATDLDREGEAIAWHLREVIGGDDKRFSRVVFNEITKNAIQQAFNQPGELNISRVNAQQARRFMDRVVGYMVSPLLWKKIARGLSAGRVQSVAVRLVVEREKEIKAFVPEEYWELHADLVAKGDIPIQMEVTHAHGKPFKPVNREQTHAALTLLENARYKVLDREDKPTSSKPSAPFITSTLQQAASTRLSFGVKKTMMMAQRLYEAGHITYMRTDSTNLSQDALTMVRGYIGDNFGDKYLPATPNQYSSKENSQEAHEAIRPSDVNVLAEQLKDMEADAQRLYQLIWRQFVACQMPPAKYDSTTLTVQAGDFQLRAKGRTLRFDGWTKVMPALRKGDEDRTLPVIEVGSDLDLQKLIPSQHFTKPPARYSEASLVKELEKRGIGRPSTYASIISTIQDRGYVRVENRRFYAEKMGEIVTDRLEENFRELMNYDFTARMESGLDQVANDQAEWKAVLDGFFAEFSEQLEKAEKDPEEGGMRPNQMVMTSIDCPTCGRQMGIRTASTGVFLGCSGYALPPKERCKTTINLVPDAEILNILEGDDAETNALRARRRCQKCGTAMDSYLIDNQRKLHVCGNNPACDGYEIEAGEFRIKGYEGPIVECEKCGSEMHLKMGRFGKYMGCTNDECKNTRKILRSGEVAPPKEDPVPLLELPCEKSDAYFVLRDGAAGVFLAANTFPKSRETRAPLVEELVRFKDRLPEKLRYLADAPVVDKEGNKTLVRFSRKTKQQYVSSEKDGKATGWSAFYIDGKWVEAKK

On to `CC(=O)NC1C(=O)N(Cc2ccccc2)c2ccc(Cl)cc21` (centres undefined), for which the IC50 at Hexokinase HKDC1 [1] and at Hexokinase-1 [2] was > 80000 nM (inactive) throughout.

With `COc1ccc(C[C@H]2NC[C@H](O)[C@H]2OC(C)=O)cc1` [ANISOMYCIN], the IC50 in the assay on Jurkat was < 160 nM (active); in assay [5] it was 49800 nM (inactive); in assay [8], > 80000 nM (inactive). The AC50 in assay [3] is 3440 nM (active); in assay [9], 882 nM (active); in assay [11], > 70000 nM (inactive); on Paired box protein Pax-8, < 260 nM (active). In addition, the EC50 in assay [4] was 91 nM (active); in assay [6], < 100 nM (active); in the assay “cells”, 121 nM (active); in [7], 104 nM (active); in assay [10], 243 nM (active); in assay [12], < 100 nM (active). Also, the EC50 in the assay with BJ is 30.8 nM (active); in [13], < 120 nM (active); in assay [14], 1030 nM (active); in assay [15], > 120000 nM (not active).

Take `O=C(Nc1cccc(C(F)(F)F)c1)c1cccc(NC(=O)c2cnccn2)c1`: the IC50 at Hexokinase-1 [16] and on Hexokinase HKDC1 [17] was > 80000 nM (inactive) throughout.

On to `Cc1cc(OCCn2nc(C(=O)O)c3ccccc3c2=O)ccc1C(C)C`, for which, on DNA topoisomerase, the AC50 is 3680 nM (active).

`C[C@H](CN1CCC(n2c(=O)[nH]c3cc(Cl)ccc32)CC1)NC(=O)c1cc2ccccc2[nH]1`: the IC50 on Phospholipase D1 [18] was 2 nM (active); at Phospholipase D2 [19] it was 120 nM (active); on Phospholipase D1 [20], 9 nM (active); at Phospholipase D2 [21], 260 nM (active).

Regarding `C=CCN1CCc2cc(O)c(O)cc2C(c2ccccc2)C1` (centres undefined), the AC50 in assay [22] was 15800 nM (inconclusive). Also, the EC50 is 92500 nM (inactive) on Mu-type opioid receptor and 2320 nM (active) in [23].
